Measured values: patent US10131652B2, “Pyrimidinyloxy benzene derivatives as herbicides” (E. I. DU PONT DE NEMOURS AND COMPANY, priority 2014, dated 2018)

How the values were obtained:
Format in all cases: in vivo
[1] = system: galium (catchweed bedstraw, Galium aparine); assay: Test B postemergence plant response; conditions: Postemergence, 1000 g ai/ha; 0 to 100 scale (0 no effect, 100 complete control)
In short: (§1)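 Weeds grown in loam soil/sand pots were sprayed postemergence at 2 to 10 cm height, one- to two-leaf stage. After approximately 10 days in greenhouse, injury was rated visually against untreated controls on a 0 (no effect) to 100 (complete control) scale; dash means no test result.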

[2] = system: blackgrass (Alopecurus myosuroides); assay: Test B postemergence plant response; conditions: Postemergence, 1000 g ai/ha; 0 to 100 scale (0 no effect, 100 complete control)
In short: as §1

[3] = system: chickweed (common chickweed, Stellaria media); assay: Test D postemergence plant response; conditions: for Chickweed plant response rating: scale 0 to 100 (0 no effect, 100 complete control); for Plant response rating, Chickweed: scale 0 to 100, 0 no effect, 100 complete control
In short: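 Postemergence spray on plants 2–18 cm tall (1- to 4-leaf stage), grown in pots of peat/vermiculite medium. Plants were kept in a greenhouse for 13–15 days, then visually rated against untreated controls on a 0 (no effect) to 100 (complete control) scale.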

[4] = system: barnyardgrass (Echinochloa crus-galli); assay: Test D pre-/postemergence plant response
In short: (§2)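 Visual injury scoring (0–100) at 13 to 15 days in greenhouse. Preemergence sprays on seeded loam/sand; postemergence sprays on 1–4 leaf plants.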

[5] = system: yellow nutsedge (Cyperus esculentus); assay: Test D pre-/postemergence plant response
In short: as §2

[6] = system: pigweed (Amaranthus retroflexus); assay: Test D pre-/postemergence plant response
In short: as §2

[7] = system: ragweed (common ragweed, Ambrosia elatior); assay: Test D pre-/postemergence plant response
In short: as §2

[8] = system: Italian ryegrass (Lolium multiflorum); assay: Test D pre-/postemergence plant response
In short: as §2

[9] = system: soybean (Glycine max); assay: Test D pre-/postemergence plant response
In short: as §2

[10] = system: morningglory (Ipomoea coccinea); assay: Test D pre-/postemergence plant response
In short: as §2

[11] = system: oilseed rape (Brassica napus); assay: Test D pre-/postemergence plant response
In short: as §2

[12] = system: corn (Zea mays); assay: Test D pre-/postemergence plant response
In short: as §2

[13] = system: giant foxtail (Setaria faberii); assay: Test D pre-/postemergence plant response
In short: as §2

[14] = system: waterhemp (common waterhemp, Amaranthus rudis); assay: Test D pre-/postemergence plant response
In short: as §2

[15] = Postemergence, 16 g ai/ha, scale 0 to 100 (0 no effect, 100 complete control)
[16] = Postemergence, 31 g ai/ha, scale 0 to 100 (0 no effect, 100 complete control)
[17] = Postemergence, 62 g ai/ha, scale 0 to 100, 0 no effect, 100 complete control
[18] = Postemergence, 125 g ai/ha, scale 0 to 100, 0 no effect, 100 complete control
[19] = Preemergence, 16 g ai/ha, scale 0 to 100 (0 no effect, 100 complete control)
[20] = Preemergence, 31 g ai/ha, scale 0 to 100 (0 no effect, 100 complete control)
[21] = Preemergence, 62 g ai/ha, scale 0 to 100 (0 no effect, 100 complete control)

For `FCc1cc(-c2c(F)cccc2Oc2ncc(Cl)cn2)no1` [Compound 57], which “Plant response rating, Galium” value [1] is on record?
The value was 90.

What about the “Plant response rating, Blackgrass” value [2] of the same compound?
Its value is 90.

And the “Chickweed plant response rating” value ([3]; 16 g ai/ha)?
The value was 30.

And the “Chickweed plant response rating” value ([3]; 31 g ai/ha)?
The value was 50.

What about the “Plant response rating, Chickweed” value ([3]; 62 g ai/ha) of the same compound?
Its value is 55.

What about the “Plant response rating, Chickweed” value ([3]; 125 g ai/ha) of the same compound?
Its value is 75.

And the “Barnyardgrass plant response rating” value [4, 15]?
Its value is 0.

And the “Barnyardgrass plant response rating” value [4, 16]?
The value was 5.

What about the “Plant response rating, Barnyardgrass” value [4, 17] of the same compound?
Its value is 5.

What about the “Plant response rating, Barnyardgrass” value [4, 18] of the same compound?
Its value is 10.

And the “Plant response rating (scale 0 to 100), Barnyardgrass” value ([4]; Preemergence, 62 g ai/ha)?
Its value is 75.

What about the “Plant response rating (scale 0 to 100), Barnyardgrass” value ([4]; Preemergence, 125 g ai/ha) of the same compound?
The value was 85.

What about the “Plant response rating, Barnyardgrass” value [4, 19] of the same compound?
Its value is 5.

And the “Plant response rating, Barnyardgrass” value [4, 20]?
The value was 20.

And the “Nutsedge, Yellow plant response rating” value [5, 15]?
The value was 0.

What about the “Nutsedge, Yellow plant response rating” value [5, 16] of the same compound?
The value was 5.

What about the “Plant response rating, Nutsedge, Yellow” value [5, 17] of the same compound?
Its value is 5.

What about the “Plant response rating, Nutsedge, Yellow” value [5, 18] of the same compound?
Its value is 5.

What about the “Plant response rating (scale 0 to 100), Nutsedge, Yellow” value ([5]; Preemergence, 125 g ai/ha) of the same compound?
Its value is 20.

And the “Plant response rating, Nutsedge, Yellow” value [5, 19]?
The value was 0.

What about the “Plant response rating, Nutsedge, Yellow” value [5, 20] of the same compound?
Its value is 10.

What about the “Plant response rating, Nutsedge, Yellow” value [5, 21] of the same compound?
The value was 20.

And the “Pigweed plant response rating” value [6, 15]?
The value was 30.

What about the “Pigweed plant response rating” value [6, 16] of the same compound?
Its value is 55.

And the “Plant response rating, Pigweed” value [6, 17]?
Its value is 55.

What about the “Plant response rating, Pigweed” value [6, 18] of the same compound?
Its value is 75.

What about the “Plant response rating (scale 0 to 100), Pigweed” value ([6]; Preemergence, 125 g ai/ha) of the same compound?
The value was 100.

And the “Plant response rating, Pigweed” value [6, 19]?
Its value is 75.

What about the “Plant response rating, Pigweed” value [6, 20] of the same compound?
The value was 85.

And the “Plant response rating, Pigweed” value [6, 21]?
The value was 100.

And the “Ragweed plant response rating” value [7, 15]?
The value was 20.

And the “Ragweed plant response rating” value [7, 16]?
Its value is 50.

What about the “Plant response rating, Ragweed” value [7, 17] of the same compound?
Its value is 60.

What about the “Plant response rating, Ragweed” value [7, 18] of the same compound?
The value was 98.

What about the “Plant response rating (scale 0 to 100), Ragweed” value ([7]; Preemergence, 125 g ai/ha) of the same compound?
Its value is 100.

What about the “Plant response rating, Ragweed” value [7, 19] of the same compound?
Its value is 25.

What about the “Plant response rating, Ragweed” value [7, 20] of the same compound?
Its value is 35.

And the “Plant response rating, Ragweed” value [7, 21]?
Its value is 100.

And the “Ryegrass, Italian plant response rating” value [8, 15]?
Its value is 0.

And the “Ryegrass, Italian plant response rating” value [8, 16]?
Its value is 0.

What about the “Plant response rating, Ryegrass, Italian” value [8, 17] of the same compound?
Its value is 0.

What about the “Plant response rating, Ryegrass, Italian” value [8, 18] of the same compound?
The value was 0.

And the “Plant response rating (scale 0 to 100), Ryegrass, Italian” value ([8]; Preemergence, 125 g ai/ha)?
The value was 50.

What about the “Plant response rating, Ryegrass, Italian” value [8, 19] of the same compound?
Its value is 0.

And the “Plant response rating, Ryegrass, Italian” value [8, 20]?
Its value is 0.

And the “Plant response rating, Ryegrass, Italian” value [8, 21]?
The value was 5.

And the “Soybean plant response rating” value [9, 15]?
The value was 40.

And the “Soybean plant response rating” value [9, 16]?
The value was 70.

And the “Plant response rating, Soybean” value [9, 17]?
The value was 85.

And the “Plant response rating, Soybean” value [9, 18]?
Its value is 90.

What about the “Plant response rating (scale 0 to 100), Soybean” value ([9]; Preemergence, 125 g ai/ha) of the same compound?
The value was 95.

What about the “Plant response rating, Soybean” value [9, 20] of the same compound?
Its value is 65.

What about the “Plant response rating, Soybean” value [9, 21] of the same compound?
Its value is 95.

What about the “Morningglory plant response rating” value [10, 15] of the same compound?
The value was 5.

What about the “Morningglory plant response rating” value [10, 16] of the same compound?
Its value is 45.

And the “Plant response rating, Morningglory” value [10, 17]?
Its value is 45.

What about the “Plant response rating, Morningglory” value [10, 18] of the same compound?
Its value is 65.

What about the “Plant response rating (scale 0 to 100), Morningglory” value ([10]; Preemergence, 125 g ai/ha) of the same compound?
Its value is 45.

And the “Plant response rating, Morningglory” value [10, 19]?
The value was 10.

And the “Plant response rating, Morningglory” value [10, 20]?
The value was 20.

And the “Plant response rating, Morningglory” value [10, 21]?
The value was 35.

And the “Oilseed Rape plant response rating” value [11, 15]?
Its value is 30.

What about the “Oilseed Rape plant response rating” value [11, 16] of the same compound?
Its value is 55.

And the “Plant response rating, Oilseed Rape” value [11, 17]?
Its value is 75.

What about the “Plant response rating, Oilseed Rape” value [11, 18] of the same compound?
The value was 90.

What about the “Plant response rating (scale 0 to 100), Oilseed Rape” value ([11]; Preemergence, 125 g ai/ha) of the same compound?
The value was 100.

What about the “Plant response rating, Oilseed Rape” value [11, 19] of the same compound?
The value was 100.

What about the “Plant response rating, Oilseed Rape” value [11, 20] of the same compound?
The value was 100.

What about the “Plant response rating, Oilseed Rape” value [11, 21] of the same compound?
The value was 100.

What about the “Corn plant response rating” value [12, 15] of the same compound?
The value was 0.

What about the “Corn plant response rating” value [12, 16] of the same compound?
The value was 5.

What about the “Plant response rating, Corn” value [12, 17] of the same compound?
The value was 5.

What about the “Plant response rating, Corn” value [12, 18] of the same compound?
Its value is 10.

And the “Plant response rating (scale 0 to 100), Corn” value ([12]; Preemergence, 125 g ai/ha)?
The value was 30.

And the “Plant response rating, Corn” value [12, 19]?
The value was 0.

What about the “Plant response rating, Corn” value [12, 20] of the same compound?
Its value is 0.

What about the “Plant response rating, Corn” value [12, 21] of the same compound?
The value was 5.

What about the “Foxtail, Giant plant response rating” value [13, 15] of the same compound?
Its value is 0.

And the “Foxtail, Giant plant response rating” value [13, 16]?
The value was 10.

And the “Plant response rating, Foxtail, Giant” value [13, 17]?
Its value is 20.

What about the “Plant response rating, Foxtail, Giant” value [13, 18] of the same compound?
Its value is 20.

And the “Plant response rating (scale 0 to 100), Foxtail, Giant” value ([13]; Preemergence, 125 g ai/ha)?
The value was 100.

And the “Plant response rating, Foxtail, Giant” value [13, 19]?
The value was 50.

What about the “Plant response rating, Foxtail, Giant” value [13, 20] of the same compound?
The value was 90.

And the “Plant response rating, Foxtail, Giant” value [13, 21]?
Its value is 100.

What about the “Waterhemp plant response rating” value [14, 15] of the same compound?
Its value is 60.

And the “Waterhemp plant response rating” value [14, 16]?
The value was 55.

And the “Plant response rating, Waterhemp” value [14, 17]?
The value was 75.

What about the “Plant response rating, Waterhemp” value [14, 18] of the same compound?
Its value is 98.

And the “Plant response rating (scale 0 to 100), Waterhemp” value ([14]; Preemergence, 125 g ai/ha)?
Its value is 100.

What about the “Plant response rating, Waterhemp” value [14, 19] of the same compound?
Its value is 100.

And the “Plant response rating, Waterhemp” value [14, 20]?
The value was 90.

What about the “Plant response rating, Waterhemp” value [14, 21] of the same compound?
The value was 100.
